Data from publication PMC12002301, “Discovery and functional characterization of a bombesin-type neuropeptide signaling system in an invertebrate” (Proceedings of the National Academy of Sciences of the …, 2025).

How the values were obtained:
[1] = system: CHO-K1 cells transfected with empty pcDNA3.1(+) vector; test: Luminescence control assay, CHO-K1 cells cotransfected with empty pcDNA3.1(+) vector and Gqs5; assay type: cell-based, Chinese hamster; details: empty pcDNA3.1(+) vector and Gqs5, words
[2] = system: cardiac stomach preparations; test: In vitro contraction of cardiac stomach preparations; set-up: species or system Asterias rubens; details: words, ArBN 10^-9 to 10^-6 M
Procedure: ArBN (EPRRNYNRVFGPTY-NH2), ArBN5-14 (NYNRVFGPTY-NH2), and ArBNP65-81 (EPMPSSLALYIANLSP-NH2), were tested for effects on in vitro cardiac stomach and tube foot preparations from A. rubens. The preparations were dissected as described previously ([43], [59]–[61]), with the organs immersed in ice-cold artificial seawater during dissection. A description of the methods employed for investigation of in vitro effects of ArBN on cardiac stomach and tube foot preparations from A. rubens is included in SI Appendix, SI Methods. […]
Wax was removed from slides using xylene (3 × 10 min) and then slides were immersed in 100% ethanol (2 × 10 min). 0.3% hydrogen peroxide (VWR Chemicals, UK) in methanol was used to quench endogenous peroxidases for 30 min and then an ethanol series (90%, 70%, 50%), distilled water and PBST were used to rehydrate the tissue sections. 5% goat serum (Sigma-Aldrich, UK) made up in PBST was used for blocking for 2 h at room temperature. […]
All the dissected preparations were set up in an aerated organ bath filled with 20 ml artificial seawater maintained at approximately 11°C. Changes in the contractile state of preparations were detected by the transducer, which was linked via a bridge amplifier (FE221 Bridge Amp, ADInstruments Ltd, Oxford, UK) to data acquisition hardware (PowerLab 2/36, ADInstruments Ltd, Oxford, UK). […]

| Substance | peptide-induced luminescence [1] | effect on cardiac stomach preparations [2] |
| --- | --- | --- |
| EPMPSSLALYIANLSP-NH2 [ArBNP65-81, C-terminally amidated 16-residue peptide predicted to be derived from residues 65 to 81 of ArBNP] | did not trigger luminescence | neither ArBN5-14 nor ArBNP65-81 had any observable effect |
| NYNRVFGPTY-NH2 [ArBN5-14, C-terminally amidated 10-residue peptide corresponding to the C-terminal region of ArBN] | did not trigger luminescence | neither ArBN5-14 nor ArBNP65-81 had any observable effect |
